Test results published in PMC4278708, “A Convenient Method for the Synthesis of (Prop-2-Ynyloxy)Benzene Derivatives via Reaction with Propargyl Bromide, Their Optimization, Scope and Biological Evaluation” (PLoS ONE, 2014).
Converted amounts (≈) assume the structure as drawn.

What was measured:
urease enzyme = urease enzyme (Canavalia ensiformis, UniProt P07374); experiment: biochemical; type: biochemical; settings: for inhibition at 50 µg/mL: read-out: Percentage inhibition at 50 ug/mL; for inhibition at 100 µg/mL: read-out: Percentage inhibition at 100 ug/mL
Method: Antiurease activity of the synthesized compounds was determined by using the modified phenol-hypochlorite method. Varying concentrations were used to prepare the urease inhibition curve of Thiourea (a known inhibitor of Urease) in the reaction mixture. Phosphate buffer solution of pH 7 containing 1 unit of enzyme was added about 200 µl in the test tube which was followed by the addition of 230 µl of phosphate buffer and 20 µl of thiourea from a scrupulous stock solution for the particular concentration of thiourea in the reaction mixture respectively. Test sample solutions were added instead of thiourea solution in case of test samples. The reaction mixture were mixed and incubated at 25°C for 5 min. 400 µl of urea stock (20 mM) was added in each test tube. In order to allow the action of urease on urea, all the test tubes were incubated at 40°C.
Phenol hypochlorite reagent (1150 µl) was added after 10 min incubation at 40°C. Test tubes were again incubated at 56°C for 25 min. A blue coloured complex was formed in the reaction mixture. The samples were allowed to cool for 5 min and then their absorbance values were measured at 625 nm and the %age inhibition was calculated. Experiment was repeated three times to get the SD values.

[1] = Nitric oxide (NO) scavenging activity (sodium nitropruside / Griess reagent); settings: for Percentage scavenging activity at 50 ug/ml / Percentage scavenging activity at 100 ug/ml: NO; for IC50: NO scavenging
Method: Solutions of known concentration were prepared by dissolving the synthesized compounds in appropriate solvents. A mixture of sample solution (20 µl), 10 mM sodium nitropruside solution (200 µl) and phosphate buffer of 7.4 pH (1780 µl) was taken in a dry test tube and the mixture was incubated at 37°C for 2 hours. 200 µl Griess reagent (0.3% Sulphanilic acid in glacial acetic acid, 0.1% Naphthyl ethylene diamine HCL (NED): Mixed equal volume of both solutions just before use) was added after the incubation period is over. After 20 min keeping the solution at room temperature, its absorbance at 528 nm was measured. Each sample was analyzed in triplicate. Positive control of any known antioxidant and control of all samples were run in parallel. Use of negative control was to calibrate the instrument. Sample blanks were also prepared in case if the samples were coloured. Correction in the absorbance values was made by subtracting the sample blank reading from the sample reading.

Staphylococcus aureus = experiment: Antibacterial activity, disc diffusion method; type: cell-based; settings: for inhibition at 40 µg/mL: read-out: Staphylococcus aureus 40 ug/ml (percentage inhibition); for inhibition at 100 µg/mL: read-out: Staphylococcus aureus 100 ug/ml (percentage inhibition)
Text: (§1) Disc diffusion method was adopted to test the antibacterial activity of synthesized compounds 2a-10 against […] different bacterial strains. Ampiciline was used as positive control to check antibacterial activity of synthesized compounds. The bacterial strains employed were: Escherichia coli, Bacillus subtillus, Shigella flexneri, Staphylococcus aureus, Pseudomonas aeroginosa and Salmonella typhi.
(§2) Disc diffusion method was used for the determination of antibacterial activity. synthetic organic compounds were examined to evaluate their antibacterial potential against four different strains of bacteria i.e. Staphlococcus aureus (Gram + ive), Pseudomonas- aeroginosa (Gram−ive) and Escherichia coli (Gram−ive), Bacillus subtilis (Gram + ive), Salmonella typhi (Gram−ive) and Shigella flexneri (−ive). The synthetic organic compounds were dissolved in an appropriate solvent to get the solution of known concentration (5 µg/µl or 10 µg/µl). In order to prepare discs of different potencies known volume of extract/synthetic organic compound solution was applied on the discs, air dried and used. After preparation of the sterilized nutrient agar and nutrient broth medium, the sterilized nutrient agar medium was poured under aseptic conditions into sterile glass petri dishes/plates. A known volume of bacterial growth culture can also be poured on the surface of agar medium solidified in petri dishes. After inoculation petri plates were kept at room temperature for 15–30 minutes so that the poured medium is adsorbed. All the discs, including test sample, +ive and –ve controls were placed onto the inoculated nutrient agar medium solidified in petri dishes with the help of sterile forceps and incubated the petri plates at 37°C±2°C for 16–24 hours. Zone of inhibition was measured in mm using ordinary scale. Experiment was repeated three times to get the SD values.

Bacillus subtillus = experiment: Antibacterial activity, disc diffusion method; type: cell-based; settings: for inhibition at 100 µg/mL / IC50: Bacillus; for inhibition at 100 µg/mL: 100 ug/ml, read-out: Bacillus subtillus 100 ug/ml (percentage inhibition); for IC50: read-out: Bacillus subtillus IC50 ug/ml
Text: as §1, §2

urease enzyme, sequence (P07374 whole entry, looked up): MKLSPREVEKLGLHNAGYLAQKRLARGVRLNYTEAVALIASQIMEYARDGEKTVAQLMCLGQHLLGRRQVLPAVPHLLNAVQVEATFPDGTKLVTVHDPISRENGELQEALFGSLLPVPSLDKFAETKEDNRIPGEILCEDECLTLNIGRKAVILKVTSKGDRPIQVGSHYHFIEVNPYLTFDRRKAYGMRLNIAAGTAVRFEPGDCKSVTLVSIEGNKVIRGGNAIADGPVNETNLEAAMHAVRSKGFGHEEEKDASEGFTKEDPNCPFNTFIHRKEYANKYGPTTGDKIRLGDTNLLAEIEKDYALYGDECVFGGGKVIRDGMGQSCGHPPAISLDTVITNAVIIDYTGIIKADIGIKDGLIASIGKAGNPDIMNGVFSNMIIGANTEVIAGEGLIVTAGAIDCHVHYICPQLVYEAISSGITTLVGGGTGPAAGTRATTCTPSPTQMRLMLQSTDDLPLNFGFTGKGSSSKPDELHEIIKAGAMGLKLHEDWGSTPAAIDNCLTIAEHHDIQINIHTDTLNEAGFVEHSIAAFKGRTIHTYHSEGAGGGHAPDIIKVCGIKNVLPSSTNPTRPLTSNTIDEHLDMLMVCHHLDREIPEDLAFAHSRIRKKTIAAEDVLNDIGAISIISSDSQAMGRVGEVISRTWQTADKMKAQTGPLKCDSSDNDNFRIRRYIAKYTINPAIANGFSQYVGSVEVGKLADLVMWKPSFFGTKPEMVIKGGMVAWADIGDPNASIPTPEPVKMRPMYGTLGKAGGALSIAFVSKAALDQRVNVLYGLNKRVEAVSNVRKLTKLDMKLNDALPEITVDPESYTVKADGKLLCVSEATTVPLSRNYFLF

Row | Compound | melting point | IC50 (urease enzyme) | inhibition at 50 µg/mL (urease enzyme) | inhibition at 100 µg/mL (urease enzyme) | nitric oxide scavenging activity (in words) [1] | Percentage scavenging activity at 50 ug/ml [1] | Percentage scavenging activity at 100 ug/ml [1] | activity against Staphylococcus aureus (in words) (Staphylococcus aureus) | inhibition at 40 µg/mL (Staphylococcus aureus; Staphylococcus aureus) | inhibition at 100 µg/mL (Staphylococcus aureus; Staphylococcus aureus) | activity against Bacillus subtillus (in words) (Bacillus subtillus) | inhibition at 100 µg/mL (Bacillus subtillus) | IC50 (Bacillus subtillus) | IC50 [1] | IC50 (Staphylococcus aureus; Staphylococcus aureus, read-out: Staphylococcus aureus IC50 ug/ml) | urease inhibition activity (in words) (urease enzyme; 50 and 100 µg/ml tested)
1 | C#CCOc1ccc([N+](=O)[O-])cc1 [Compound 2f, 1-nitro-4-(prop-2-ynyloxy)benzene] | 129 °C | 360 µM | 44 ± 0.43% | 65.8 ± 0.18% | did not show any significant results | 32±0.10% | 47.01±0.27% | inactive | 18.7 ± 0.3% | 39 ± 0.4% | batter activity | 57.9 ± 0.25% | 87.5 µg/mL (≈ 494 µM) |  |  | 
2 | C#CCOc1ccc(S(=O)(=O)c2ccc(OCC#C)cc2)cc1 [Compound 4b, 4,4′-sulfonylbis((prop-2-ynyloxy)benzene)] | 136 °C | 217 µM | 32 ± 0.28% | 74.9 ± 0.13% |  | 15.33±0.12% | 59±0.15% | moderate activity | 26.9 ± 0.35% | 53 ± 0.7% |  | 50.9 ± 0.34% | 97.6 µg/mL (≈ 299 µM) | 89.6 µg/mL (≈ 275 µM) | 94.2 µg/mL (≈ 289 µM) | 
3 | C#CCNc1ccc(Br)c(C)c1 [Compound 8c, 4-bromo-3-methyl-N-(prop-2-ynyl)aniline] | 40.85 °C |  | 32 ± 0.38% | 45.26 ± 0.295% |  | 33.66±0.09% | 62.8±0.19% |  | 15.9 ± 0.69% | 35 ± 0.2% |  | 36 ± 0.39% |  | 78 µg/mL (≈ 348 µM) |  | did not show any satisfactory results
